The text below walks through data of patent US6768044B1, “Chimeric hydroxyl-phenyl pyruvate dioxygenase, DNA sequence and method for obtaining plants containing such a gene, with herbicide tolerance” (priority 2000, dated 2004).

The test system of experiment [1] is Pseudomonas fluorescens A32 HPPD. In kind it is cell-based. As to conditions: E. coli culture containing vector pRP C; for end concentration giving identical results (total absence of staining): compound in DMSO solution. From the text:
pRP C: The vector pRP A (which is described in the application WO 96/38567), which contains a genomic DNA fragment and the encoding region of the Pseudomonas fluorescens A32 HPPD gene, was digested with NcoI, purified and then ligated into the expression vector pKK233-2 (Clontech) which itself had been digested with NcoI, the only cloning site of this vector. The orientation of the gene in the resulting vector pRP C, which allows expression under-the control of the trc promoter, was checked.
(§1) A YT-broth-type culture medium with 1% agarose (Gibco BRL ultra pure) and 5 mM L-tyrosine (Sigma), which contains the selection agent for the above vector pRP C is poured into 96-well plates at 100 μl per well. 10 μl of an E. coli culture in the exponential growth phase which contains the vector pRP C is applied to each well.
A series was established with identical culture medium containing different concentrations (0 mM to 14 mM) of 2-cyano-3-cyclopropyl-l-(2-methylsulphonyl-4-trifluoromethylphenyl)-propane-i,3-dione (EP 0 496 631) which was solubilized in water and brought to pH 7.5. This molecule is a diketonitrile, known as an efficient inhibitor of HPPD activity (Pallett, K. E. et al. 1997. Pestic. Sci. 50, 83-84).
The end concentrations of the two molecules in DMSO solution are 3.5 mM and 7 mM, respectively.

The test system of another experiment is HPPD activity. Briefly: In vivo activity of chimeric HPPDs (brown staining of isolated colonies). In kind it is cell-based, E. coli. The following applies: scale from 1 to 10, 10 being the most intense, reflects HPPD activity. As for the experimental part:
as §1
The brown staining was scored on a scale from 1 to 10, 10 being the most intense (as described in Example 1), by comparison with HPPDs derived from Arabidopsis thaliana (FAA) and Daucus carota (FCC).

For `CCOc1c(S(=O)(=O)CC)ccc(C(=O)C2C(=O)CC(C)CC2=O)c1Cl` (stereo not shown) [2-(2-chloro-3-ethoxy-4-(ethyl-sulphonyl)benzoyl)-5-methyl-1,3-cyclohexadione], the “end concentration giving identical results (total absence of staining)” value in experiment [1] came out at 7 mM.

In the case of `CSc1ccc(C(=O)C(C#N)C(=O)C2CC2)c(S(C)(=O)=O)c1` (stereo not shown) [2-cyano-3-cyclopropyl-1-(2-methylsulphonyl-4-(methylthio)phenyl)-propane-1,3-dione], the “end concentration giving identical results (total absence of staining)” value in experiment [1] was determined as 3.5 mM.

As to `CS(=O)(=O)c1cc(C(F)(F)F)ccc1C(=O)C(C#N)C(=O)C1CC1` (stereo not drawn) [2-cyano-3-cyclopropyl-l-(2-methylsulphonyl-4-trifluoromethylphenyl)-propane-i,3-dione], the “concentration at which a total absence of staining is observed” value in experiment [1] (YT broth, 1% agarose, 5 mM L-tyrosine, 16 hours at 37° C., compound solubilized in water, pH 7.5, series 0 mM to 14 mM) came to 7 mM.

B1: FAA: HPPD derived from Arabidopsis thaliana, used for comparison (protein, UniProt P93836 1-445, looked up)
4-hydroxyphenylpyruvate …: MGHQNAAVSENQNHDDGAASSPGFKLVGFSKFVRKNPKSDKFKVKRFHHIEFWCGDATNVARRFSWGLGMRFSAKSDLSTGNMVHASYLLTSGDLRFLFTAPYSPSLSAGEIKPTTTASIPSFDHGSCRSFFSSHGLGVRAVAIEVEDAESAFSISVANGAIPSSPPIVLNEAVTIAEVKLYGDVVLRYVSYKAEDTEKSEFLPGFERVEDASSFPLDYGIRRLDHAVGNVPELGPALTYVAGFTGFHQFAEFTADDVGTAESGLNSAVLASNDEMVLLPINEPVHGTKRKSQIQTYLEHNEGAGLQHLALMSEDIFRTLREMRKRSSIGGFDFMPSPPPTYYQNLKKRVGDVLSDDQIKECEELGILVDRDDQGTLLQIFTKPLGDRPTIFIEIIQRVGCMMKDEEGKAYQSGGCGGFGKGNFSELFKSIEEYEKTLEAKQLVG
Regarding B1, in the experiment with HPPD activity, the brown staining score is 10.
